From patent publication US20040009168A1, “Multidose antibody formulation” (priority 2002, published 2004)
Entries after “also recorded” stand apart in the source; their conditions may differ.

How the values were obtained:
[1] = tested on: formulated humanized monoclonal antibody; test: Visual analysis of the antibody formulation with preservative; format: physicochemical; conditions: for Visual analysis: after 2 days at 50° C.
Method: (§1) The compatibility of six parenteral preservatives (benzyl alcohol, chlorobutanol, methyl paraben, propyl paraben, phenol, and m-cresol) with the formulated humanized monoclonal antibody was tested. The preservatives were added to the formulated antibody based on their commonly used concentration ranges in marketed multidose products (3). Protein aggregation was suspected to be the primary degradation pathway. Preliminary evaluation of the preservatives was done initially by DSC and after 2 days of incubation at 50° C. by visual inspection for appearance and by SEC for soluble aggregates.

[2] = tested on: formulated humanized monoclonal antibody; test: Size-exclusion chromatography (SEC), monomer content; format: physicochemical; conditions: for Monomer (%): 1 week at 45 ° C.; for Percent monomer (by SEC): after 2 days at 50° C.
Method: as §1
(§2) Because of the results seen in the preliminary evaluation, additional analyses were done using lower concentrations of the preservatives.
The monomer content, soluble aggregates, and clips due to hydrolysis were monitored by size-exclusion chromatography. The analytical system employed consisted of an HPLC pump (Perkin Elmer, Series 410) and an autosampler (Perkin Elmer, ISS 2000) connected to a diode array detector (Perkin Elmer, 235C). Two size-exclusion chromatography columns (Tosohaas TSK-Gel, G3000SWXL,), connected in tandem, were used for sample separation. The composition of the mobile phase was 200 mM KPO4, 150 mM NaCl, pH 6.9. Samples were diluted to 1 mg/mL and a sample volume of 40 μL was injected for analysis. The flow rate was 1.0 mL/min, and detection was at 220 and 280 nm.

[3] = tested on: formulated humanized monoclonal antibody; test: Differential scanning calorimetry (DSC), denaturation temperature; format: physicochemical; conditions: initial time point, t0
Method: as §1
A decrease in the denaturation temperature reflects a destabilizing effect of the preservative on formulation stability. The denaturation temperature (Tm) of the sample was measured using the Pyris 1 differential scanning calorimeter (Perkin Elmer). A sample volume of 50 μL was taken from a 10 mg/mL protein sample and sealed in a stainless steel pan. The sample was held at 32° C. for 2 minutes, and heated to 100° C. at the rate of 10° C./min.

[4] = tested on: antigen expressed on human T cells; test: Potency testing by FACS binding assay (flow cytometry); conditions: 1 week at 45 ° C.
Method: as §2
The biological activity (potency) of the protein was measured by flow cytometry, based on the binding of the antibody antigen expressed on human T cells.

[5] = tested on: Escherichia coli, Staphylococcus aureus, Pseudomonas aeruginosa; test: Preservative screening test (modified USP/EP preservative efficacy test), bacteria; format: cell-based; conditions: for b-coefficient, Bacterial LR: ± 95% confidence limits; for Bacterial × 10^4 (cfu/mL): 1 week at 25 ° C., total bacterial count 8.78 × 10^4 cfu/mL
Method: (§3) The efficacy of the preservative against various microorganisms was measured using a modified USP/EP preservative efficacy test. These tests were conducted at Microconsult Inc. (Dallas, Tex.). In the procedure, formulations were tested against the following microorganisms: Escherichia coli, Staphylococcus aureus, Pseudomonas aeruginosa, Candida albicans, and Aspergillus niger. The three bacterial strains were inoculated together at a total concentration of ˜10^5 cfu/mL, and the two fungi were inoculated together at a total concentration of ˜10^5 cfu/mL. Samples were incubated for 7 days at room temperature (25° C.), and the total bacterial and fungal counts were measured using a colony counter. The log reduction (LR) values for the bacterial and fungal counts were calculated as log (initial count/final count).
(§4) In the unmodified USP/EP preservative efficacy tests, each microorganism is tested separately at a concentration of ˜10^5 cfu/mL. […] The preservative efficacy test was modified in this study to reduce the total sample requirement and cost per analysis. Although the bacterial and fungal strains were not tested individually at specified concentrations, by comparing the overall bacterial and fungal log reduction values with the regulatory requirements, an assessment is made of the efficacy of the preservative against these microorganisms.
(§5) The formulations were prepared by adding the preservatives at the desired concentrations as per the I-optimal design table (Table II), generated using the software Strategy (Experiment Strategies Foundation & Process Builder, Inc.). All samples were incubated at 37° C. for 9 weeks. Because protein aggregation was known to be the primary degradation pathway, protein stability was examined by SEC and right-angle light scattering to monitor the formation of soluble and insoluble aggregates, respectively, and by UV spectroscopy to monitor changes in the protein concentration. The biological activity of the samples was assessed after 1 month at 37° C. Furthermore, to assess the antimicrobial efficacy of the formulations, samples were examined by the preservative screening test at the initial time point. Samples were incubated at room temperature, and the aerobic plate counts were measured based on the minimum requirements of the USP and BP/EP preservative efficacy tests at 24 hours, 7 days, and 14 days.

[6] = tested on: Candida albicans, and Aspergillus niger; test: Preservative screening test (modified USP/EP preservative efficacy test), fungi; format: cell-based; conditions: for Fungi × 10^5 (cfu/mL): 1 week at 25 ° C., total fungal count 2.84 × 10^5 cfu/mL
Method: as §3, §4, §5

[7] = tested on: Escherichia coli, Staphylococcus aureus, Pseudomonas aeruginosa, Candida albicans, and Aspergillus niger; test: USP and EP/BP preservative efficacy tests; format: cell-based; conditions: 0.75% benzyl alcohol
Method: as §4
The antimicrobial efficacy of the preservative was monitored by the USP and EP/BP preservative efficacy tests.

[8] = tested on: formulated humanized monoclonal antibody; test: Stability and bioactivity of the protein formulated with 0.75% benzyl alcohol, monitored over time; format: physicochemical
[9] = preservative 0.5%, listed as benzyl alcohol
[10] = main effect of the preservative (bi)
[11] = preservative 0.75%, listed as benzyl alcohol
[12] = quadratic term of one preservative (bii)
[13] = single preservative, 0.75% benzyl alcohol

antibody precipitation ([1]; benzyl alcohol at high concentration such as 1.0%): causes antibody precipitation | Visual analysis ([1]; preservative 0.5%): Clear | Visual analysis [1, 9]: clear | Visual analysis ([1]; preservative 1.0%): Slightly cloudy | aggregation (in words) ([2]; benzyl alcohol at high concentrations (≧1.0%)): caused significant aggregation | Monomer (%) ([2]; preservative 0.1%): 97.65% | Monomer (%) ([2]; preservative 0.5%): 93.92% | Percent monomer (by SEC) ([2]; preservative 0.5%): 92.3% | Percent monomer (by SEC) [2, 9]: ~92% | Monomer (%) ([2]; preservative 0.75%): 87.97% | Percent monomer (by SEC) ([2]; preservative 1.0%): 13.4% | Tm (by DSC) ([3]; preservative 0.5%): 78.5 °C | Tm (by DSC) ([3]; preservative 1.0%): 75.8 °C | Tm (by DSC) ([3]; preservative 2%): 72.3 °C
Compound: OCc1ccccc1 [Benzyl alcohol, benzyl alcohol]
Visual analysis ([1]; preservative 2%): caused sample precipitation; also recorded: Precipitated | Stability by SEC (in words) ([2]; 7 days at 45° C.): unstable due to the formation of soluble aggregates | Potency (%) ([4]; preservative 0.1%): 81% | Potency (%) ([4]; preservative 0.5%): 75% | Potency (%) ([4]; preservative 0.75%): 74% | antimicrobial efficacy against bacteria (regression analysis, in words) ([5]; I-optimal design, 14 days at room temperature): statistically significant antimicrobial efficacy | b-coefficient, Bacterial LR [5, 10]: 1.04 ± 0.05 | Bacterial × 10^4 (cfu/mL) ([5]; preservative 0.1%): TNTC | Bacterial × 10^4 (cfu/mL) ([5]; preservative 0.5%): 0 × 10^4 cfu/mL | Bacterial × 10^4 (cfu/mL) [5, 9]: complete kill | Bacterial × 10^4 (cfu/mL) ([5]; preservative 0.75%): 0 × 10^4 cfu/mL | Bacterial × 10^4 (cfu/mL) [5, 11]: complete kill | b-coefficient, Bacterial LR [5, 12]: −0.68 ± 0.11 | log reduction value predicted by simulation, bacteria [5, 13]: 4.8 | antimicrobial efficacy against fungi (in words) ([6]; 7 days, at least 0.5% benzyl alcohol, parabens and chlorobutanol at their highest concentration): satisfactory | b-coefficient, Fungal LR [6, 10]: 0.51 | Fungi × 10^5 (cfu/mL) ([6]; preservative 0.1%): 12 × 10^5 cfu/mL | Fungi × 10^5 (cfu/mL) ([6]; preservative 0.5%): 0 × 10^5 cfu/mL | Fungi × 10^5 (cfu/mL) [6, 9]: complete kill | Fungi × 10^5 (cfu/mL) ([6]; preservative 0.75%): 0 × 10^5 cfu/mL | Fungi × 10^5 (cfu/mL) [6, 11]: complete kill | b-coefficient, Fungal LR [6, 12]: −0.46 | log reduction value predicted by simulation, fungi [6, 13]: 3.7 | USP and EP/BP regulatory requirements [7]: USP and EP/BP (criterion B only) regulatory requirements were satisfied | protein stability compared with the control formulation [8]: comparable to that of the control formulation
